Turning to `CC(C)n1c(CC[C@@H](O)C[C@@H](O)CC(=O)[O-])c(-c2ccc(F)cc2)c(-c2ccccc2)c1C(=O)Nc1cccc(C#N)c1.[Na+]` [Example 142, (3R,5R)-7-[5-(3-Cyano-phenylcarbamoyl)-3-(4-fluoro-phenyl)-1-isopropyl-4-phenyl-1H-pyrrol-2-yl]-3,5-dihydroxy-heptanoic Acid Sodium Salt], the melting point lay in the range of 197 to 199 °C. Next, `CC(C)n1c(/C=C/[C@@H](O)C[C@@H](O)CC(=O)[O-])c(-c2ccc(F)cc2)c(-c2ccccc2)c1C(=O)Nc1cccc(C#N)c1.[Na+]` [Example 143, (3R,5S)-7-[5-(3-Cyano-phenylcarbamoyl)-3-(4-fluoro-phenyl)-1-isopropyl-4-phenyl-1H-pyrrol-2-yl]-3,5-dihydroxy-hept-6-enoic Acid Sodium Salt]: 210 to 212 °C; `CC(C)n1c(CC[C@@H](O)C[C@@H](O)CC(=O)[O-])c(-c2ccc(F)cc2)c(-c2ccccc2)c1C(=O)NCc1ccc(C#N)cc1.[Na+]` [Example 144, (3R,5R)-7-[5-(4-Cyano-benzylcarbamoyl)-3-(4-fluoro-phenyl)-1-isopropyl-4-phenyl-1H-pyrrol-2-yl]-3,5-dihydroxy-heptanoic Acid Sodium Salt]: 178 to 180 °C. Next, `CC(C)n1c(/C=C/[C@@H](O)C[C@@H](O)CC(=O)[O-])c(-c2ccc(F)cc2)c(-c2ccccc2)c1C(=O)NCc1ccc(C#N)cc1.[Na+]` [Example 145, (3R,5S)-7-[5-(4-Cyano-benzylcarbamoyl)-3-(4-fluoro-phenyl)-1-isopropyl-4-phenyl-1H-pyrrol-2-yl]-3,5-dihydroxy-hept-6-enoic Acid Sodium Salt]: 193 to 195 °C; `CC(C)n1c(CC[C@@H](O)C[C@@H](O)CC(=O)[O-])c(-c2ccc(F)cc2)c(-c2ccccc2)c1C(=O)NCc1cccc(C#N)c1.[Na+]` [Example 146, (3R,5R)-7-[5-(3-Cyano-benzylcarbamoyl)-3-(4-fluoro-phenyl)-1-isopropyl-4-phenyl-1H-pyrrol-2-yl]-3,5-dihydroxy-heptanoic Acid Sodium Salt]: 180 to 182 °C.

`CC(C)n1c(/C=C/[C@@H](O)C[C@@H](O)CC(=O)[O-])c(-c2ccc(F)cc2)c(-c2ccccc2)c1C(=O)NCc1cccc(C#N)c1.[Na+]` [Example 147, (3R,5S)-7-[5-(3-Cyano-benzylcarbamoyl)-3-(4-fluoro-phenyl)-1-isopropyl-4-phenyl-1H-pyrrol-2-yl]-3,5-dihydroxy-hept-6-enoic Acid Sodium Salt]: the melting point was 208 to 210 °C. Next, `CC(C)OC(=O)c1ccc(CNC(=O)c2c(-c3ccccc3)c(-c3ccc(F)cc3)c(CC[C@@H](O)C[C@@H](O)CC(=O)[O-])n2C(C)C)cc1.[Na+]` [Example 148, (3R,5R)-7-[3-(4-Fluoro-phenyl)-5-(4-isopropoxycarbonyl-benzylcarbamoyl)-1-isopropyl-4-phenyl-1H-pyrrol-2-yl]-3,5-dihydroxy-heptanoic Acid Sodium Salt]: 199 to 201 °C; `CC(C)OC(=O)c1ccc(CNC(=O)c2c(-c3ccccc3)c(-c3ccc(F)cc3)c(/C=C/[C@@H](O)C[C@@H](O)CC(=O)[O-])n2C(C)C)cc1.[Na+]` [Example 149, (3R,5S)-7-[3-(4-Fluoro-phenyl)-5-(4-isopropoxycarbonyl-benzylcarbamoyl)-1-isopropyl-4-phenyl-1H-pyrrol-2-yl]-3,5-dihydroxy-hept-6-enoic Acid Sodium Salt]: 222 to 224 °C; `COC(=O)c1cccc(CNC(=O)c2c(-c3ccccc3)c(-c3ccc(F)cc3)c(/C=C/[C@@H](O)C[C@@H](O)CC(=O)[O-])n2C(C)C)c1.[Na+]` [Example 151, (3R,5S)-7-[3-(4-Fluoro-phenyl)-1-isopropyl-5-(3-methoxycarbonyl-benzylcarbamoyl)-4-phenyl-1H-pyrrol-2-yl]-3,5-dihydroxy-hept-6-enoic Acid Sodium Salt]: 171 to 174 °C. Next, `COc1ccc([C@H](C)NC(=O)c2c(-c3ccc(F)cc3)c(-c3ccc(F)cc3)c(CC[C@@H](O)C[C@@H](O)CC(=O)[O-])n2C(C)C)cc1.[Na+]` [Example 152, (3R,5R)-7-{3,4-Bis-(4-fluoro-phenyl)-1-isopropyl-5-[(S)—I-(4-methoxy-phenyl)-ethylcarbamoyl]-1H-pyrrol-2-yl]-3,5-dihydroxy-heptanoic Acid Sodium Salt]: 227 to 229 °C; `COc1ccc([C@@H](C)NC(=O)c2c(-c3ccc(F)cc3)c(-c3ccc(F)cc3)c(CC[C@@H](O)C[C@@H](O)CC(=O)[O-])n2C(C)C)cc1.[Na+]` [Example 154, (3R,5R)-7-{3,4-Bis-(4-fluoro-phenyl)-1-isopropyl-5-[(R)-1-(4-methoxy-phenyl)-ethylcarbamoyl]-1H-pyrrol-2-yl}-3,5-dihydroxy-heptanoic Acid Sodium Salt]: 225 to 227 °C; `COc1ccc([C@@H](C)NC(=O)c2c(-c3ccc(F)cc3)c(-c3ccc(F)cc3)c(/C=C/[C@@H](O)C[C@@H](O)CC(=O)[O-])n2C(C)C)cc1.[Na+]` [Example 155, (3R,5S)-7-{3,4-Bis-(4-fluoro-phenyl)-1-isopropyl-5-[(R)-1-(4-methoxy-phenyl)-ethylcarbamoyl]-1H-pyrrol-2-yl)-3,5-dihydroxy-hept-6-enoic Acid Sodium Salt]: 255 to 257 °C. Next, `CNC(=O)c1c(-c2ccccc2)c(-c2ccc(F)cc2)c(CC[C@@H](O)C[C@@H](O)CC(=O)[O-])n1C(C)C.[Na+]` [Example 156, (3R,5R)-7-[3-(4-Fluoro-phenyl)-1-isopropyl-5-methylcarbamoyl-4-phenyl-1H-pyrrol-2-yl]-3,5-dihydroxy-heptanoic Acid Sodium Salt]: 238 to 240 °C; `CNC(=O)c1c(-c2ccccc2)c(-c2ccc(F)cc2)c(/C=C/[C@@H](O)C[C@@H](O)CC(=O)[O-])n1C(C)C.[Na+]` [Example 157, (3R,5S)-7-[3-(4-Fluoro-phenyl)-1-isopropyl-5-methylcarbamoyl-4-phenyl-1H-pyrrol-2-yl]-3,5-dihydroxy-hept-6-enoic Acid Sodium Salt]: 224 to 226 °C; `CCNC(=O)c1c(-c2ccccc2)c(-c2ccc(F)cc2)c(CC[C@@H](O)C[C@@H](O)CC(=O)[O-])n1C(C)C.[Na+]` [Example 158, (3R,5R)-7-[5-Ethylcarbamoyl-3-(4-fluoro-phenyl)-1-isopropyl-4-phenyl-1H-pyrrol-2-yl]-3,5-dihydroxy-heptanoic Acid Sodium Salt]: 203 to 205 °C. `CCNC(=O)c1c(-c2ccccc2)c(-c2ccc(F)cc2)c(/C=C/[C@@H](O)C[C@@H](O)CC(=O)[O-])n1C(C)C.[Na+]` [Example 159, (3R,5S)-7-[5-Ethylcarbamoyl-3-(4-fluoro-phenyl)-1-isopropyl-4-phenyl-1H-pyrrol-2-yl]-3,5-dihydroxy-hept-6-enoic Acid Sodium Salt] had a melting point of 226 to 228 °C. Next, `CC(C)n1c(/C=C/[C@@H](O)C[C@@H](O)CC(=O)[O-])c(-c2ccc(F)cc2)c(-c2ccccc2)c1C(N)=O.[Na+]` [Example 160, (3R,5S)-7-[5-Carbamoyl-3-(4-fluoro-phenyl)-1-isopropyl-4-phenyl-1H-pyrrol-2-yl]-3,5-dihydroxy-hept-6-enoic Acid Sodium Salt]: 238 to 240 °C; `CC(C)n1c(CC[C@@H](O)C[C@@H](O)CC(=O)[O-])c(-c2ccc(F)cc2)c(-c2ccccc2)c1C(N)=O.[Na+]` [Example 161, (3R,5R)-7-[5-Carbamoyl-3-(4-fluoro-phenyl)-1-isopropyl-4-phenyl-1H-pyrrol-2-yl]-3,5-dihydroxy-heptanoic Acid Sodium Salt]: 212 to 214 °C. Next, `CC(C)n1c(CC[C@@H](O)C[C@@H](O)CC(=O)[O-])c(-c2ccc(F)cc2)c(-c2ccc(F)cc2)c1C(=O)NCc1ccc(C(=O)[O-])cc1.[Na+].[Na+]` [Example 162, (3R,5R)-4-({[5-(6-Carboxy-3,5-dihydroxy-hexyl)-3,4-bis-(4-fluoro-phenyl)-1-isopropyl-1H-pyrrole-2-carbonyl]-amino}-methyl)-benzoic Acid Disodium Salt]: 298 to 300 °C; `CC(C)n1c(CC[C@@H](O)C[C@@H](O)CC(=O)[O-])c(-c2ccc(F)cc2)c(-c2ccccc2)c1C(=O)NCc1cccc(C(=O)[O-])c1.[Na+].[Na+]` [Example 163, (3R,5R)-3-({[5-(6-Carboxy-3,5-dihydroxy-hexyl)-4-(4-fluoro-phenyl)-1-isopropyl-3-phenyl-1H-pyrrole-2-carbonyl]-amino}-methyl)-benzoic Acid Disodium Salt]: 240 to 245 °C.

The compound `CC(C)n1c(CC[C@@H](O)C[C@@H](O)CC(=O)[O-])c(-c2ccc(F)cc2)c(-c2ccccc2)c1C(=O)NCc1ccc(C(=O)[O-])cc1.[Na+].[Na+]` [Example 164, (3R,5R)-4-({[5-(6-Carboxy-3,5-dihydroxy-hexyl)-4-(4-fluoro-phenyl)-1-isopropyl-3-phenyl-1H-pyrrole-2-carbonyl]-amino}-methyl)-benzoic Acid Disodium Salt] returned a melting point of 255 to 260 °C. Next, `Cc1ccnc(NC(=O)c2c(-c3ccc(F)cc3)c(-c3ccc(F)cc3)c(C=O)n2C(C)C)n1` [Example 179, 3,4-bis-(4-fluoro-phenyl)-5-formyl-1-isopropyl-1H-pyrrole-2-carboxylic Acid (4-methyl-pyrimidin-2-yl)-amide]: 173 to 175 °C.

The term melting point denotes the temperature, or range, at which the solid turns liquid.

The values above are taken from patent US20050154042A1, “N-alkyl pyrroles as HMG-CoA reductase inhibitors” (priority 2003, published 2005).
